Measurements: US6630313B2, “Phosphatidyl serine receptors and uses thereof” (National Jewish Medical and Research Center, priority 2000, dated 2003)

Experiments:
[1] = test system: Jurkat T cells transfected with the candidate PSR; assay: Binding and phagocytosis of symmetric red cell ghosts; assay type: cell-based, human; settings: for binding of symmetric red cell ghosts: FIG. 5; for binding and phagocytosis of symmetric red cell ghosts: stably transfected Jurkat T cells, FIG. 5 legend
From the text: A human EST clone (Accession No. R24727) containing the full length gene was obtained through the IMAGE Consortium via ATCC (Manassas, Va.). The insert was subcloned into pcDNA 3.1/neo at Hind III/Not I sites (Invitrogen, Carlsbad, Calif.). M12.C3 cells were transfected in OptiMEM I medium using Lipofectamine Plus (both from GibcoBRL Life Science Technologies, Grand Island, N.Y.). Jurkat T cells were transfected in OptiMEM I medium using DMRIE C Jurkat T cells were stimulated with PHA alone (1 μg/ml) or with PMA (1.6 nM) and PHA to induce expression of the receptor. After 48 hrs, the cells were analyzed for expression of the PS receptor using mAb 217 and flow cytometry. For stable transfections, Jurkat T cells were selected in G418 (1 mg/ml). Surface expression of the receptor was induced by treatment of the stably transfected cells with 160 nM PMA in the absence of G418 for 48 hours. The candidate PSR was also inserted into pRc/RSV (PharMingen, San Diego, Calif.), or pUP (provided by Brian Schaefer), and transfected into Jurkat T cells or M12.C3 cells by electroporation.
Human red blood cells were lysed in 1:50 PBS containing 1 mM CaCl2 on ice for one hour; they were resealed at 37° C. for 30 minutes by addition of 5×PBS. Exposure of phosphatidylserine was confirmed by binding of annexin-FITC, assessed by flow cytometry.

HMDM = assay: Uptake of apoptotic cells by HMDM; assay type: cell-based, human; settings: control agents
Procedure: Human monocytes were obtained from normal donors, and cultured in X-Vivo 10 (BioWhitaker) containing 10% human serum. The differentiated macrophages (HMDM) were used at 7 days of culture. Mouse bone-marrow derived macrophages were derived by culturing bone marrow cells in M-CSF for 5-7 days.
Macrophages, fibroblasts, or epithelial cells were preincubated with 100 μM liposomes (containing 50:50 molar ratio of PS:PC or PI:PC), 1 mM RGDS or RGES, undiluted hybridoma supernatants containing mAb 217 or mAb 284 (for HMDM) or 100 μg/ml purified mAb 217, or 100 μg/ml isotype controls for 30 minutes prior to adding apoptotic Jurkat T cells at ratio of 5:1 target:phagocyte. Apoptosis was induced in Jurkat T cell by UV irradiation as described (Fadok et al., J Clin Invest 101:890-898 (1998)). THP-1 cells were stimulatedwith PMA (160 nM) for 72 hours to induce a macrophage phenotype, the ability to adhere, and the ability to take up apoptotic cells. After 1 hr, the phagocytes were washed and fixed for light microscopic evaluation of uptake. […] Aliquots were removed and assessed for binding and phagocytosis by light microscopy as described (Fadok et al., J Immunol 148:2207-2216 (1992); Fadok et al., J Immunol 149:4029-4035 (1992); Fadok et al., J Immunol 151:4274-4285 (1993); Fadok et al., J Immunol 161:6250-6257 (1998)). […]

Molecule | binding of symmetric red cell ghosts [1] | binding and phagocytosis of symmetric red cell ghosts [1] | effect on uptake of apoptotic cells by HMDM (HMDM)
N[C@H](COP(=O)(O)O)C(=O)O [phospho-D-serine] | not | not | 
N[C@@H](COP(=O)(O)O)C(=O)O [phospho-L-serine] | inhibited | inhibited stereospecifically | 
RGES |  |  | no effect
